Columns and labels:
Human M4 = target: T1, Human M4 (Homo sapiens, UniProt P08173); assay: mAChR M4 cell-based functional assay (calcium flux, antagonism of EC80 acetylcholine response); settings: for remaining activity at 30 µM: % ACh maximum at 30 μM, human M4, read-out: Emin; for IC50: M4/Gqi5/CHO-K1 cells, decrease of response to EC80 acetylcholine
T1 construct: expressed in transfected cells; host or cells: CHO-K1 (Chinese hamster ovary) cells, stably co-transfected with Gqi5
T1 sequence (P08173 1-479): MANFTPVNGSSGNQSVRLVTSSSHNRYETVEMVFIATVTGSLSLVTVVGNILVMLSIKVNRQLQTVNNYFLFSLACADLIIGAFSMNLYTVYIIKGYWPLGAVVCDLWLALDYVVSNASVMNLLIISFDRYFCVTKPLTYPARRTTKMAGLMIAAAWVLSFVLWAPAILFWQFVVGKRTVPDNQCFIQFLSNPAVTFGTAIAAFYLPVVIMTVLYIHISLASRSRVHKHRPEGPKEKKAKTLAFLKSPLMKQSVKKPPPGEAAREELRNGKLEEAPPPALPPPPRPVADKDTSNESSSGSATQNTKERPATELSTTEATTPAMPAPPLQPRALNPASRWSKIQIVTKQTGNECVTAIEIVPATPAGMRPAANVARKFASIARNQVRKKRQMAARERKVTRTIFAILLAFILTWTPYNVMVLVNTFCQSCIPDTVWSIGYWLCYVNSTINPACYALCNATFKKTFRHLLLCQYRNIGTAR
Protocol: Human or rat M4 cDNA, along with the chimeric G protein Gqi5, were transfected into Chinese hamster ovary (CHO-K1) cells purchased from the American Type Culture Collection using Lipofectamine2000. M4/Gqi5/CHO cells were grown in Ham's F-12 medium containing 10% heat-inactivated fetal bovine serum (FBS), 20 mM HEPES, 500 μg/mL G418 sulfate, and 200 μg/mL Hygromycin B.
For high throughput measurement of agonist-evoked increases in intracellular calcium, CHO-K1 cells stably expressing muscarinic receptors were plated in growth medium lacking G418 and hygromycin at 15,000 cells/20 μL/well in Greiner 384-well black-walled, tissue culture (TC)-treated, clear-bottom plates (VWR). Cells were incubated overnight at 37° C. and 5% CO2. The next day, cells were washed using an ELX 405 (BioTek) with assay buffer; the final volume was then aspirated to 20 μL. Next, 20 μL of a 2.3 μM stock of Fluo-4/acetoxymethyl ester (Invitrogen, Carlsbad, Calif.), prepared as a 2.3 mM stock in DMSO and mixed in a 1:1 ratio with 10% (w/v) Pluronic F-127 and diluted in assay buffer, was added to the wells and the cell plates were incubated for 50 min at 37° C. and 5% CO2. Dye was removed by washing with the ELX 405 and the final volume was aspirated to 20 μL. Compound master plates were formatted in a 10 point concentration-response curve (CRC) format (1:3 dilutions) in 100% DMSO with a starting concentration of 10 or 1 mM using a BRAVO liquid handler (Agilent). Test compound CRCs were then transferred to daughter plates (240 nL) using the Echo acoustic plate reformatter (Labcyte, Sunnyvale, Calif.) and then diluted into assay buffer (40 μL) to a 2× stock using a Thermo Fisher Combi (Thermo Fisher Scientific, Waltham, Mass.).
Calcium flux was measured using the Functional Drug Screening System (FDSS) 6000 or 7000 (Hamamatsu Corporation, Tokyo, Japan) as an increase in the fluorescent static ratio. Compounds were applied to cells (20 μL, 2×) using the automated system of the FDSS at 2 seconds into the protocol and the data were collected at 1 Hz. At 143 s, 10 μL of an EC20 concentration of the muscarinic receptor agonist acetylcholine was added (5×), followed by the addition of 12 μL of an EC80 concentration of acetylcholine at the 268 s time point (5×). Agonist activity was analyzed as a concentration-dependent increase in calcium mobilization upon compound addition. Positive allosteric modulator activity was analyzed as a concentration-dependent increase in the EC20 acetylcholine response. Antagonist activity was analyzed as a concentration-dependent decrease in the EC80 acetylcholine response; for the purposes of the tables herein, an IC50 (inhibitory concentration 50) was calculated as a concentration-dependent decrease of the response elicited by an EC80 concentration of acetylcholine. Concentration-response curves were generated using a four-parameter logistical equation in XLFit curve fitting software (IDBS, Bridgewater, N.J.) for Excel (Microsoft, Redmond, Wash.) or Prism (GraphPad Software, Inc., San Diego, Calif.) or the Dotmatics software platform (Dotmatics, Bishop's Stortford, UK).
Compounds were synthesized as described above. Activity (IC50 and Emin) was determined in the mAChR M4 cell-based functional assay as described above and the data are shown in Table 5. The compound numbers correspond to the compound numbers used in Examples 1-4 and Tables 1-4.

mice = assay: haloperidol-induced catalepsy, a model of parkinsonian motor disability; assay type: in vivo
Text: Furthermore, haloperidol-induced catalepsy, a model of parkinsonian motor disability, is reduced in M4 knockout mice as compared to wild-type controls. […] The reversal by scopolamine was uncommonly robust and more pronounced than we observe with agents targeting a number of other targets being evaluated for potential antiparkinsonian effects, including metabotropic glutamate (mGlu) receptors mGlu4 or mGlu5, A2A adenosine receptors, and NMDA receptors. […] Taken together with the extensive studies of M4 modulation of basal ganglia and motor function, these studies provide compelling evidence that M4 is the dominant mAChR subtype involved in the antiparkinsonian effects of non-selective mAChR antagonists and provide support for discovery and development of selective M4 antagonists for treatment of neurodegenerative disease such as PD, dystonia, tardive dyskinesia and other movement disorders.

M4 knockout mice = settings: but not the other four mAChR subtypes (M1-3,5); cited from earlier work

Compound	remaining activity at 30 µM (Human M4) [%]	IC50 (Human M4) [µM]	reducing catalepsy induced by haloperidol (mice; M4 KO mice)	reversal of catalepsy induced by haloperidol (mice; WT mice)	locomotor-activating effects (M4 knockout mice)
Cc1cccnc1CN1CC2CCC(CNc3ccc(-c4c(C)cnn4C)nn3)C2C1 (stereo not drawn) [Compound 22, 6-(2,4-dimethylpyrazol-3-yl)-N-[[2-[(3-methyl-2-pyridyl)methyl]-3,3a,4,5,6,6a-hexahydro-1H-cyclopenta[c]pyrrol-4-yl]methyl]pyridazin-3-amine]	10.8	1.5			
Cc1cnn(C)c1-c1ccc(NCC2CCC3CN(CC4CCCOC4)CC23)nn1 (stereo not drawn) [Compound 24, 6-(2,4-dimethylpyrazol-3-yl)-N-[[2-(tetrahydropyran-3-ylmethyl)-3,3a,4,5,6,6a-hexahydro-1H-cyclopenta[c]pyrrol-4-yl]methyl]pyridazin-3-amine]	22.6	> 10			
Cc1cnn(C)c1-c1ccc(NCC2CCC3CN(CC4CCOCC4)CC23)nn1 (stereo not drawn) [Compound 25, 6-(2,4-dimethylpyrazol-3-yl)-N-[[2-(tetrahydropyran-4-ylmethyl)-3,3a,4,5,6,6a-hexahydro-1H-cyclopenta[c]pyrrol-4-yl]methyl]pyridazin-3-amine]	27.8	> 10			
Cc1cnn(C)c1-c1ccc(NCC2CCC3CN(Cc4ccccc4)CC23)nn1 (stereo not drawn) [Compound 26, N-[(2-benzyl-3,3a,4,5,6,6a-hexahydro-1H-cyclopenta[c]pyrrol-4-yl)methyl]-6-(2,4-dimethylpyrazol-3-yl)pyridazin-3-amine]	16.1	> 10			
CN1[C@@H]2C[C@@H](OC(=O)[C@H](CO)c3ccccc3)C[C@H]1[C@@H]1O[C@@H]12 [scopolamine]			ineffective	completely reversed	dramatically reduced

The next lines start with results.

remaining activity at 30 µM (Human M4) [%]	IC50 (Human M4) [µM]	Compound	reducing catalepsy induced by haloperidol (mice; M4 KO mice)	reversal of catalepsy induced by haloperidol (mice; WT mice)	locomotor-activating effects (M4 knockout mice)
5.19	0.055	Cc1cnn(C)c1-c1ccc(NCC2CCC3CN(CC4CC5C=CC4C5)CC23)nn1 (stereo not drawn) [Compound 21, N-[[2-(5-bicyclo[2.2.1]hept-2-enylmethyl)-3,3a,4,5,6,6a-hexahydro-1H-cyclopenta[c]pyrrol-4-yl]methyl]-6-(2,4-dimethylpyrazol-3-yl)pyridazin-3-amine]			
5.96	0.766	Cc1cnn(C)c1-c1ccc(NCC2CCC3CN(CCc4ccccc4)CC23)nn1 (stereo not drawn) [Compound 23, 6-(2,4-dimethylpyrazol-3-yl)-N-[[2-(2-phenylethyl)-3,3a,4,5,6,6a-hexahydro-1H-cyclopenta[c]pyrrol-4-yl]methyl]pyridazin-3-amine]			

From patent US11352344B2, “Antagonists of the muscarinic acetylcholine receptor M4” (Vanderbilt University, priority 2017, dated 2022)
